Data as given in patent US20050208058A1, “Compositions and methods for modulating cell division” (priority 2003, published 2005).
d = 2'-deoxy (DNA)

Key:
Assay type in all cases: cell-based, human
[1] = tested on: RPE cells; test: FACS of cells treated in tandem with two siRNAs (p53 dependence); conditions: tandem treatment silamin then siGCP2; FIG. 6A
Description: (§1) For flow cytometry (i.e., fluorescence-activated cell sorter or FACS) experiments, siRNAs were delivered to cells as described above, and were incubated for 50-70 hours. To synchronize cells, nocodazole was added to the cells to a concentration of 5 μg/mL for 12 hours. Cells were stained with propidium iodide and analyzed by flow cytometry (FACSCAN; Becton Dickinson) using FLOJO® software (Tree Star, Inc., Ashland, Oreg.).
A number of experiments were conducted to determine if p53 is required for the cell cycle arrest phenotype described herein. FACS analysis of tandem siRNA-treated cells was performed as described in Example 2. BrDU and DAPI imaging was performed as described in Example 2. Intracellular p53 was visualized using anti-p53 antibody that is specific for activated p53 (i.e., p53 phosphorylated at Serine 33) (“α-Pser33-p53” provided by Yoichi Taya and described in Kishis et al., J. Biol. Chem., 276:39115-3922, 2001)
In FIG. 6A each line tracing represents FACS data from cells treated in tandem with the siRNAs directed to the gene products indicated above the line. Cells were first treated with siRNA directed to the gene product to the left of the slash. Up to 24 hours later, siRNA directed to the gene product to the right of the slash was added. […] 12 hours before collecting the cells, nocodazole was added to the cells analyzed in the bottom three line tracings. […]

[2] = tested on: RPE cells; test: Flow cytometry (FACS) of nocodazole-induced shift from G1 to G2/M peak after siRNA treatment
Description: as §1
In another approach to evaluating the effect requirement for centrosomal gene products, fluorescence assisted cell sorting (flow cytometry or FACS) analysis was performed as described in Gromley et al., J. Cell Biol., 161:535-545 (2003). Briefly, cells were treated with indicated siRNA for at least 50-70 hours, unless otherwise indicated. Cells were synchronized by adding nocodazole to 5 μg/mL for 12 hours prior to cell collection. Cells were collected, fixed in methanol, stained with propidium iodide, and analyzed by flow cytometry (FACSCAN®;Becton Dickinson) using FLOJO® software (Tree Star, Inc.).
FIG. 3A is a graph showing the effects of depleting the indicated centrosomal gene products by siRNA treatment. The left side of the graph depicts the FACS results for treated cells before the addition of nocodazole (-noc). The major fluorescence peak in (-noc) cells is the G1 peak, (i.e., lower DNA fluorescence). The right side of the graph depicts the results for cells after nocodazole treatment (+noc). […] This may be due to inefficient silencing caused by the siRNAs used.
The ability of a number of centrosomal genes to inhibit cell cycling of RPE1 cells was tested by treating cells with siRNAs and performing FACS analysis as described in Example 2.

[3] = tested on: GCP2; test: Immunofluorescence of GCP2 at the centrosome after siRNA treatment; conditions: vs siLamin; FIG. 1B
Description: To test the ability of siRNAs to silence centrosomal gene products, cells were treated with siRNAs for 24 hours. Cells were diploid, telomerase-immortalized human retinal pigment epithelial (RPE1) cells (hTERT-RPE1s from Clontech, Palo Alto, Calif.) (see Morales et al., Nat Genet, 21:115-118, 1999). siRNAs directed to δ-tubulin (SEQ ID NO:2), γ-tubulin (SEQ ID NO:4), GCP2 (SEQ ID NO:5), GCP3(SEQ ID NO:6), cNAP1 (SEQ ID NO:8), PCM1 (SEQ ID NO:9), ninein (SEQ ID NO:21), NEK2a (SEQ ID NO:10), centrin2 (SEQ ID NO:12), CDC14A (SEQ ID NO:13), gapcena (SEQ ID NO:15), nemo (SEQ ID NO:16), pericentrin (SEQ ID NO:23), lamin A/C (CUGGACUUCCAGAAGAACA, SEQ ID NO: 24) zyxin (UGUGGCUGUCAACGAACUC, SEQ ID NO:25), and p53 (GGACAAGGGUUGGGCUGGG, SEQ ID NO:26) were made as complementary single stranded 19-mer siRNAs with 3′ dTdT overhangs (Dharmacon Inc., Lafayette, Colo.), deprotected, annealed and delivered into cells using OLIGOFECTAMINE® from Invitrogen (Carlsbad, Calif.). Nucleotides were delivered in media containing up to 100 nanomolar concentrations of siRNAs. […]
FIG. 1B compares cells treated with siRNA to Lamin (siLamin, left panel) and GCP2 (siGCP2, right panel). Oval shaped fluorescence staining indicates nuclear DNA (large arrow). […]

## UCUCGUACUCCAGAAGACU (siRNA; RNA, 3' dTdT, backbone not given here) [siGCP2, siRNA directed to GCP2]
[1]
  nocodazole shift from G1 peak to G2/M peak: blocked
[2]; 72 hours of siRNA treatment, FIG. 3B
  block of nocodazole-induced shift to G2/M peak at 72 hours: effectively blocked the nocodazole-induced shift
[2]; siRNA 50-70 hours, nocodazole 5 μg/mL 12 hours, FIG. 3A, FIG. 8
  inhibition of nocodazole-induced shift from G1 peak to G2/M peak: prevented nocodazole-induced shift
[2]; time course, FIG. 3B
  duration of block of nocodazole shift: at least 244 hours
  time of siRNA treatment before prevention of the nocodazole shift occurs: > 48 h
[3]
  GCP2 level in the centrosome (immunofluorescence): reduced levels of GCP2 in the centrosome
